In patent US8927500B2, “Peptidomimetic macrocycles” (Aileron Therapeutics, Inc., priority 2012, dated 2015):
Where a SMILES comes first, the peptide text is derived from it. Bridges are numbered along the chain shown (N, C = ends). [ ]: non-standard residue; d: D form. R8 = C=CCCCCCC[C@@](C)(N)C(=O)O; Cha = N[C@@H](CC1CCCCC1)C(=O)O; Chg = N[C@H](C(=O)O)C1CCCCC1; hLeu = CC(C)CC[C@H](N)C(=O)O; S5 = C=CCCC[C@](C)(N)C(=O)O; Nle = CCCC[C@H](N)C(=O)O; Aib = CC(C)(N)C(=O)O

Key:
MDM2 = MDM2 (Homo sapiens, UniProt Q00987); assay: Competitive fluorescence polarization assay for MDM2; assay type: binding; settings: competitive FP assay, MDM2; for IC50: read-out: IC50 (MDM2); for Ki: read-out: Ki (MDM2)
Sequence of MDM2 (Q00987 1-125): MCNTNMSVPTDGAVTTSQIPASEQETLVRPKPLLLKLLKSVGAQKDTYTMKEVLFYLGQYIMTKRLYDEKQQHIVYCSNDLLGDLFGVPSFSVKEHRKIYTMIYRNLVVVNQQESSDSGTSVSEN

MDMX = target: T1, MDMX (Homo sapiens, UniProt O15151); assay: Competitive fluorescence polarization assay for MDMX; assay type: binding; settings: competitive FP assay; for IC50: read-out: IC50 (MDMX); for Ki: read-out: Ki (MDMX)
T1 sequence (O15151 1-125): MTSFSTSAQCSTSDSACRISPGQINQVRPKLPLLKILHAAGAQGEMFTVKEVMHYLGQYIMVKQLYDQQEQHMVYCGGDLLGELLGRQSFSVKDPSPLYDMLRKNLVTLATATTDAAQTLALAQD

| IC50 (MDM2) [nM] | Ki (MDM2) [nM] | IC50 (MDMX) [nM] | Ki (MDMX) [nM] | Compound |
| --- | --- | --- | --- | --- |
| 100 to 1000 | 10 to 100 | 100 to 1000 | 10 to 100 | CC(=O)N[C@@H](Cc1ccccc1)C(=O)N[C@]1(C)CCCCCCC=CCCC[C@@](C)(C(=O)N[C@@H](CCCNC(=N)N)C(=O)N[C@@H](CCCNC(=N)N)C(=O)N[C@@H](CC(=O)O)C(=O)N[C@@H](CC2CCCCC2)C(N)=O)NC(=O)[C@H](CC(C)C)NC(=O)[C@H](CCC(N)=O)NC(=O)[C@H](Cc2c[nH]cn2)NC(=O)[C@H](Cc2c[nH]c3ccccc23)NC(=O)[C@H](Cc2c[nH]cn2)NC(=O)[C@H](Cc2c[nH]cn2)NC1=O [compound 30] (Ac-F[R8]HHWHQL[S5]RRD[Cha]-NH2; staple 2-9) |
| > 1000 | 100 to 1000 | 100 to 1000 | 10 to 100 | CCCC[C@H](NC(=O)[C@H](Cc1c[nH]cn1)NC(=O)[C@H](Cc1c[nH]cn1)NC(=O)[C@]1(C)CCCC=CCCCCCC[C@@](C)(NC(=O)[C@H](Cc2ccccc2)NC(C)=O)C(=O)N[C@@H](C)C(=O)N[C@@H](Cc2ccc(O)cc2)C(=O)N[C@@H](Cc2c[nH]c3ccccc23)C(=O)N[C@@H](C)C(=O)N[C@@H](CCC(N)=O)C(=O)N[C@@H](CC(C)C)C(=O)N1)C(=O)N[C@@H](CC(C)C)C(N)=O [compound 38] (Ac-F[R8]AYWAQL[S5]HH[Nle]L-NH2; staple 2-9) |
| 100 to 1000 | 100 to 1000 | 100 to 1000 | 10 to 100 | CC(=O)N[C@@H](Cc1ccccc1)C(=O)N[C@]1(C)CCCCCCC=CCCC[C@@](C)(C(=O)N[C@@H](CCC(N)=O)C(=O)N[C@@H](Cc2c[nH]cn2)C(=O)N[C@H](C(=O)N[C@H](CC(C)C)C(N)=O)C2CCCCC2)NC(=O)[C@H](CC(C)C)NC(=O)[C@H](CCC(N)=O)NC(=O)[C@H](C(C)C)NC(=O)[C@H](Cc2c[nH]c3ccccc23)NC(=O)[C@H](Cc2ccc(O)cc2)NC(=O)[C@H](C)NC1=O [compound 40] (Ac-F[R8]AYWVQL[S5]QH[Chg][dL]-NH2; staple 2-9) |
| 100 to 1000 | 10 to 100 | 100 to 1000 | 100 to 1000 | CC(=O)N[C@@H](Cc1ccccc1)C(=O)N[C@]1(C)CCCCCCC=CCCC[C@@](C)(C(=O)N[C@@H](Cc2c[nH]cn2)C(=O)NC(C)(C)C(=O)N[C@@H](C)C(=O)N[C@H](C)C(N)=O)NC(=O)[C@H](CC(C)C)NC(=O)[C@H](CCC(N)=O)NC(=O)[C@H](Cc2ccc(O)cc2)NC(=O)[C@H](Cc2c[nH]c3ccccc23)NC(=O)[C@H](Cc2ccc(O)cc2)NC(=O)[C@H](C)NC1=O [compound 42] (Ac-F[R8]AYWYQL[S5]H[Aib]A[dA]-NH2; staple 2-9) |
| 100 to 1000 | 10 to 100 | 100 to 1000 | 10 to 100 | CC(=O)N[C@@H](CC(C)C)C(=O)N[C@H](C(=O)N[C@@H](Cc1ccccc1)C(=O)N[C@]1(C)CCCCCCC=CCCC[C@@](C)(C(=O)N[C@@H](Cc2c[nH]cn2)C(=O)NC(C)(C)C(=O)N[C@@H](CCC(C)C)C(=O)N[C@H](C(N)=O)C(C)C)NC(=O)[C@H](CC(C)C)NC(=O)[C@H](CCC(N)=O)NC(=O)[C@H](C)NC(=O)[C@H](Cc2c[nH]c3ccccc23)NC(=O)[C@H](Cc2ccc(O)cc2)NC(=O)[C@H](C)NC1=O)[C@@H](C)O [compound 49] (Ac-LTF[R8]AYWAQL[S5]H[Aib][hLeu]V-NH2; staple 4-11) |
| 10 to 100 | < 10 | 10 to 100 | < 10 | CC(=O)N[C@@H](CC(=O)O)C(=O)N[C@@H](CC(C)C)C(=O)N[C@H](C(=O)N[C@@H](Cc1ccccc1)C(=O)N[C@]1(C)CCCCCCC=CCCC[C@@](C)(C(=O)N[C@@H](CCCNC(=N)N)C(=O)N[C@@H](CCCNC(=N)N)C(=O)N[C@@H](CC(C)C)C(=O)N[C@H](C)C(N)=O)NC(=O)[C@H](CC(C)C)NC(=O)[C@H](CCC(N)=O)NC(=O)[C@H](Cc2c[nH]cn2)NC(=O)[C@H](Cc2c[nH]c3ccccc23)NC(=O)[C@H](Cc2c[nH]cn2)NC(=O)[C@H](Cc2c[nH]cn2)NC1=O)[C@@H](C)O [compound 52] (Ac-DLTF[R8]HHWHQL[S5]RRL[dA]-NH2; staple 5-12) |
| 100 to 1000 | 10 to 100 | 100 to 1000 | 10 to 100 | CC(=O)N[C@@H](Cc1ccccc1)C(=O)N[C@]1(C)CCCCCCC=CCCC[C@@](C)(C(=O)N[C@@H](CCCNC(=N)N)C(=O)N[C@@H](CCCNC(=N)N)C(=O)N[C@@H](CC(=O)O)C(=O)N[C@@H](C)C(N)=O)NC(=O)[C@H](CC(C)C)NC(=O)[C@H](CCC(N)=O)NC(=O)[C@H](Cc2c[nH]cn2)NC(=O)[C@H](Cc2c[nH]c3ccccc23)NC(=O)[C@H](Cc2c[nH]cn2)NC(=O)[C@H](Cc2c[nH]cn2)NC1=O [compound 54] (Ac-F[R8]HHWHQL[S5]RRDA-NH2; staple 2-9) |
| < 10 | < 10 | 100 to 1000 | 10 to 100 | CC(=O)N[C@@H](CCC(=O)O)C(=O)N[C@H](C(=O)N[C@@H](Cc1ccccc1)C(=O)N[C@]1(C)CCCCCCC=CCCC[C@@](C)(C(=O)N[C@@H](CO)C(=O)N[C@@H](C)C(=O)N[C@H](C)C(N)=O)NC(=O)[C@H](CC(C)C)NC(=O)[C@H](CCC(N)=O)NC(=O)[C@H](C)NC(=O)[C@H](Cc2c[nH]c3ccccc23)NC(=O)[C@H](Cc2ccc(O)cc2)NC(=O)[C@H](C(C)C)NC1=O)[C@@H](C)O [compound 124] (Ac-ETF[R8]VYWAQL[S5]SA[dA]-NH2; staple 4-11) |
| < 10 | < 10 | 100 to 1000 | 10 to 100 | CC(=O)N[C@@H](CCC(=O)O)C(=O)N[C@H](C(=O)N[C@@H](Cc1ccccc1)C(=O)N[C@]1(C)CCCCCCC=CCCC[C@@](C)(C(=O)N[C@@H](CO)C(=O)N[C@@H](Cc2c[nH]c3ccccc23)C(=O)N[C@@H](C)C(N)=O)NC(=O)[C@H](CC(C)C)NC(=O)[C@H](CCC(N)=O)NC(=O)[C@H](C)NC(=O)[C@H](Cc2c[nH]c3ccccc23)NC(=O)[C@H](Cc2ccc(O)cc2)NC(=O)[C@H](C(C)C)NC1=O)[C@@H](C)O [compound 128] (Ac-ETF[R8]VYWAQL[S5]SWA-NH2; staple 4-11) |
| < 10 | < 10 | 100 to 1000 | 10 to 100 | CC(=O)N[C@@H](CCC(=O)O)C(=O)N[C@H](C(=O)N[C@@H](Cc1ccccc1)C(=O)N[C@]1(C)CCCCCCC=CCCC[C@@](C)(C(=O)N[C@@H](CO)C(=O)N[C@@H](Cc2c[nH]c3ccccc23)C(=O)N[C@@H](C)C(N)=O)NC(=O)[C@H](CC(C)C)NC(=O)[C@H](CCC(N)=O)NC(=O)[C@H](C)NC(=O)[C@H](Cc2c[nH]c3ccccc23)NC(=O)[C@H](Cc2ccc(O)cc2)NC(=O)[C@H](CCCCN)NC1=O)[C@@H](C)O [compound 129] (Ac-ETF[R8]KYWAQL[S5]SWA-NH2; staple 4-11) |
| < 10 | < 10 | 100 to 1000 | 10 to 100 | CC(=O)N[C@@H](CC(C)C)C(=O)N[C@H](C(=O)N[C@@H](Cc1ccccc1)C(=O)N[C@]1(C)CCCCCCC=CCCC[C@@](C)(C(=O)N[C@@H](CO)C(=O)N[C@@H](CO)C(=O)N[C@H](C)C(N)=O)NC(=O)[C@H](CC(C)C)NC(=O)[C@H](CCC(N)=O)NC(=O)[C@H](C)NC(=O)[C@H](Cc2c[nH]c3ccccc23)NC(=O)[C@H](Cc2ccc(O)cc2)NC(=O)[C@H](C(C)C)NC1=O)[C@@H](C)O [compound 133] (Ac-LTF[R8]VYWAQL[S5]SS[dA]-NH2; staple 4-11) |
| < 10 | < 10 | 100 to 1000 | 10 to 100 | CC(=O)N[C@@H](CCC(=O)O)C(=O)N[C@H](C(=O)N[C@@H](Cc1ccccc1)C(=O)N[C@]1(C)CCCCCCC=CCCC[C@@](C)(C(=O)N[C@@H](CO)C(=O)N[C@@H](CO)C(=O)N[C@H](C)C(N)=O)NC(=O)[C@H](CC(C)C)NC(=O)[C@H](CCC(N)=O)NC(=O)[C@H](C)NC(=O)[C@H](Cc2c[nH]c3ccccc23)NC(=O)[C@H](Cc2ccc(O)cc2)NC(=O)[C@H](C(C)C)NC1=O)[C@@H](C)O [compound 134] (Ac-ETF[R8]VYWAQL[S5]SS[dA]-NH2; staple 4-11) |
| < 10 | < 10 | 100 to 1000 | 10 to 100 | CC(=O)N[C@@H](CC(C)C)C(=O)N[C@H](C(=O)N[C@@H](Cc1ccccc1)C(=O)N[C@]1(C)CCCCCCC=CCCC[C@@](C)(C(=O)N[C@@H](CO)C(=O)N[C@@H](CC(N)=O)C(=O)N[C@H](C)C(N)=O)NC(=O)[C@H](CC(C)C)NC(=O)[C@H](CCC(N)=O)NC(=O)[C@H](C)NC(=O)[C@H](Cc2c[nH]c3ccccc23)NC(=O)[C@H](Cc2ccc(O)cc2)NC(=O)[C@H](C(C)C)NC1=O)[C@@H](C)O [compound 135] (Ac-LTF[R8]VYWAQL[S5]SN[dA]-NH2; staple 4-11) |
| < 10 | < 10 | 100 to 1000 | 10 to 100 | CC(=O)N[C@@H](CCC(=O)O)C(=O)N[C@H](C(=O)N[C@@H](Cc1ccccc1)C(=O)N[C@]1(C)CCCCCCC=CCCC[C@@](C)(C(=O)N[C@@H](CO)C(=O)N[C@@H](CC(N)=O)C(=O)N[C@H](C)C(N)=O)NC(=O)[C@H](CC(C)C)NC(=O)[C@H](CCC(N)=O)NC(=O)[C@H](C)NC(=O)[C@H](Cc2c[nH]c3ccccc23)NC(=O)[C@H](Cc2ccc(O)cc2)NC(=O)[C@H](C(C)C)NC1=O)[C@@H](C)O [compound 136] (Ac-ETF[R8]VYWAQL[S5]SN[dA]-NH2; staple 4-11) |
| 10 to 100 | < 10 | 100 to 1000 | 10 to 100 | CC[C@H](C)[C@H](NC(=O)[C@H](C)NC(=O)[C@H](C)NC(=O)[C@]1(C)CCCC=CCCCCCC[C@@](C)(NC(=O)[C@H](Cc2ccccc2)NC(=O)[C@@H](NC(=O)[C@H](CC(C)C)NC(C)=O)[C@@H](C)O)C(=O)N[C@@H](C)C(=O)N[C@@H](CCC(=O)O)C(=O)N[C@@H](Cc2c[nH]c3ccccc23)C(=O)N[C@@H](C)C(=O)N[C@@H](CCC(N)=O)C(=O)N[C@@H](CC(C)C)C(=O)N1)C(=O)N[C@H](C)C(N)=O [compound 180] (Ac-LTF[R8]AEWAQL[S5]AAI[dA]-NH2; staple 4-11) |
